Columns and labels:
Assay in all cases: phosphoenolpyruvate titration of purified optical probe (fluorescence ratio)
Assay type in all cases: binding
Conditions in all cases: phosphoenolpyruvate 0 to 10 mM, purified probe treated 10 minutes, ex 420/485 nm, em 528 nm
[1] = target: T1, Thermus thermophilus TtPFK optical probe 254/255-TtPFK-cpYFP variant, TtPFK I253N/Q254L/R255L/G256F, cpYFP Y1S/N246F (Thermus thermophilus, UniProt P21777, form not given/G256F/I253N/Q254L/R255L)
T1 construct: the numbering corresponds to the full length of the phosphoenolpyruvate-sensitive polypeptide; His-tag; made in house; host or cells: E. coli BL21 (DE3)
Method: (§1) • 1. The expression vectors (for example, a phosphoenolpyruvate optical probe expression vector based on pCDF.) were transformed into BL21 (DE3) cells, incubated inverted overnight, and the clones were picked from the plates into 250 mL Erlenmeyer flasks, placed in a shaker at 37 °C and incubated at 220 rpm to OD=0.4-0.8, then 1/1000 (V/V) of IPTG (1 M) was added to induce expression at 18 °C for 24-36 hours. • 2. Upon completion of inducible expression, cells were harvested by centrifugation at 4000 rpm for 30 min, resuspended in 50 mM phosphate buffer and disrupted ultrasonically until the broth were clear, centrifuged at 9600 rpm at 4 °C for 20 min. • 3. The centrifuged supernatant was used to obtain protein by purification through a self-packed nickel column affinity chromatography column, and the protein obtained after nickel column affinity chromatography was further used to obtain protein dissolved in 100 mM HEPES buffer (pH 7.4). • 4. After purified proteins were subjected to SDS-PAGE, probes were diluted to a protein solution having a final concentration of 0.2-5 µM using assay buffer (100 mm HEPES, 100 mM NaCl, pH 7.4). Phosphoenolpyruvate was formulated as a stock solution at a final concentration of 50 mM with the assay buffer (100 mM HEPES, 100 mM NaCl, pH 7.4). • 5. 100 µl 1 µM of protein solution was taken, incubated at 37 °C for 10 min, phosphoenolpyruvate was added for titration, and the fluorescence intensity of 528 nm emission after 420 nm and 485 nm fluorescence excitation of the protein was measured. The fluorescence excitation and emission determination of the samples were done using a multifunctional fluorescence microplate reader. • 6. 100 µl 1 µM of protein solution was taken, incubated at 37 °C for 10 min, and phosphoenolpyruvate was added to determine the absorption and fluorescence spectra of the proteins. Determination of the absorption and fluorescence spectra of the samples was done by spectrophotometer and spectrofluorometer.
(§2) The recombinant plasmids of the mutation library were transformed into BL21 (DE3) to induce expression, and the purified probe protein was subjected to phosphoenolpyruvate-responsive screening, dividing the detection signal of the fusion fluorescent protein containing 2 mM phosphoenolpyruvate by that of the fusion fluorescent protein without phosphoenolpyruvate. […]

[2] = target: T2, Thermus thermophilus TtPFK optical probe 254/255-TtPFK-cpYFP variant, TtPFK I253V/Q254L/R255F/G256Y, cpYFP Y1H/N246F (Thermus thermophilus, UniProt P21777, form not given/G256Y/I253V/Q254L/R255F)
T2 construct: His-tag; made in house; host or cells: E. coli BL21 (DE3)
Method: as §1, §2

[3] = target: T3, Thermus thermophilus TtPFK optical probe 254/256-TtPFK-cpYFP variant, TtPFK I253D/Q254L/G256V/G257L, cpYFP Y1T/N246F (Thermus thermophilus, UniProt P21777, form not given/G256V/G257L/I253D/Q254L)
T3 construct: the numbering corresponds to the full length of the phosphoenolpyruvate-sensitive polypeptide; His-tag; made in house; host or cells: E. coli BL21 (DE3)
Method: as §1, §2

[4] = target: T4, Thermus thermophilus TtPFK optical probe 254/255-TtPFK-cpYFP variant, TtPFK Q254L/R255L/G256H, cpYFP Y1S (Thermus thermophilus, UniProt P21777, form not given/G256H/Q254L/R255L)
T4 construct: the numbering corresponds to the full length of the phosphoenolpyruvate-sensitive polypeptide; His-tag; made in house; host or cells: E. coli BL21 (DE3)
Method: as §1, §2

[5] = target: T5, Thermus thermophilus phosphofructokinase TtPFK (SEQ ID NO: 1) optical probe 254/256-TtPFK-cpYFP, no mutation (Thermus thermophilus, UniProt P21777, form not given/R255N)
T5 construct: the numbering corresponds to the full length of the phosphoenolpyruvate-sensitive polypeptide; His-tag; made in house; host or cells: E. coli BL21 (DE3)
Method: as §1, §2

[6] = target: T6, Thermus thermophilus TtPFK optical probe 254/255-TtPFK-I253G/Q254L/R255L/G256F-cpYFP-Y1P (Thermus thermophilus, UniProt P21777, form not given/G256F/I253G/Q254L/R255L)
T6 construct: the numbering corresponds to the full length of the phosphoenolpyruvate-sensitive polypeptide; His-tag; made in house; host or cells: E. coli BL21 (DE3)
Method: as §1, §2

[7] = target: T7, Thermus thermophilus TtPFK optical probe 254/256-TtPFK-I253Q/Q254L/G256V/G257L-cpYFP-Y1T/N246F (Thermus thermophilus, UniProt P21777, form not given/G256V/G257L/I253Q/Q254L)
T7 construct: the numbering corresponds to the full length of the phosphoenolpyruvate-sensitive polypeptide; His-tag; made in house; host or cells: E. coli BL21 (DE3)
Method: as §1, §2

[8] = target: T8, Thermus thermophilus phosphofructokinase TtPFK (SEQ ID NO: 1) optical probe 254/255-TtPFK-cpYFP, no mutation, SEQ ID NO: 10 (Thermus thermophilus, UniProt P21777)
T8 construct: His-tag; made in house; host or cells: E. coli BL21 (DE3)
Method: as §1, §2

[9] = target: T9, Thermus thermophilus TtPFK optical probe 254/255-TtPFK-cpYFP variant, TtPFK I253V/Q254L/R255L/G256H, cpYFP Y1S (Thermus thermophilus, UniProt P21777, form not given/G256H/I253V/Q254L/R255L)
T9 construct: the numbering corresponds to the full length of the phosphoenolpyruvate-sensitive polypeptide; His-tag; made in house; host or cells: E. coli BL21 (DE3)
Method: as §1, §2

[10] = target: T10, Thermus thermophilus TtPFK optical probe 254/255-TtPFK-cpYFP variant, TtPFK I253V/Q254A/R255F/G256Y, cpYFP N246F (Thermus thermophilus, UniProt P21777, form not given/G256Y/I253V/Q254A/R255F)
T10 construct: the numbering corresponds to the full length of the phosphoenolpyruvate-sensitive polypeptide; His-tag; made in house; host or cells: E. coli BL21 (DE3)
Method: as §1, §2

[11] = target: T11, Thermus thermophilus TtPFK optical probe 254/255-TtPFK-cpYFP variant, TtPFK Q254V/R255I/G256H, cpYFP N246W (Thermus thermophilus, UniProt P21777, form not given/G256H/Q254V/R255I)
T11 construct: the numbering corresponds to the full length of the phosphoenolpyruvate-sensitive polypeptide; His-tag; made in house; host or cells: E. coli BL21 (DE3)
Method: as §1, §2

[12] = target: T12, Thermus thermophilus TtPFK optical probe 254/255-TtPFK-cpYFP variant, TtPFK I253Y/Q254I (Thermus thermophilus, UniProt P21777, form not given/I253Y/Q254I/Q254N)
T12 construct: the numbering corresponds to the full length of the phosphoenolpyruvate-sensitive polypeptide; His-tag; made in house; host or cells: E. coli BL21 (DE3)
Method: as §1, §2

[13] = target: T13, Thermus thermophilus TtPFK optical probe 254/255-TtPFK-cpYFP variant, TtPFK I253F/Q254L/R255L/G256F, cpYFP Y1G/N246F (Thermus thermophilus, UniProt P21777, form not given/G256F/I253F/Q254L/R255L)
T13 construct: the numbering corresponds to the full length of the phosphoenolpyruvate-sensitive polypeptide; His-tag; made in house; host or cells: E. coli BL21 (DE3)
Method: as §1, §2

C=C(OP(=O)(O)O)C(=O)O [phosphoenolpyruvate, Phosphoenolpyruvate]
Kd [1]: 9.66 µM | Kd [2]: 81.7 µM | Kd [3]: 13.4 µM | Kd [4]: 8.5 µM | Kd [5]: 2150 nM | Kd [6]: 30.9 µM | Kd [7]: 13.1 µM | Kd [8]: 800 nM | Kd [9]: 5.64 µM | Kd [10]: 32 µM | Kd [11]: 11.4 µM | Kd [12]: 1550 nM | Kd [13]: 5.56 µM
